Assays:
non-stimulated PBMCs = test: Non-stimulated PBMCs: cytokine secretion and signs of T-cell activation; assay type: cell-based, human
Source text: This is an important finding for compounds that shall selectively act on T cells which have been activated by presence of antigen from pathogens or tumors, but shall not lead to an unwanted general activation of all T cells of a patient.

[1] = test system: aCD3/aCD28-stimulated human CD4+-T-cells; test: IL-2 production and activation markers in aCD3/aCD28 stimulated isolated human CD4+-T-cells; assay type: cell-based; conditions: IL-2 production at 3 μM compound
Procedure, shortened: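 CD4+ T cells isolated from buffy-coat PBMCs by microbeads were plated in Xvivo medium (1.5*10^5 cells/well) and stimulated with anti-CD3/28 mAbs plus compound. IL-2 measured by ELISA in supernatants at 24 h or 48 h; CD25 and proliferation by flow cytometry, CD69 at 24 h. Activity classes based on IL-2 at 3 μM compound.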

[2] = test system: CD8 T cells & M21 tumor cells; test: CD8 T cells from M21-prestimulated PBMCs restimulated with M21 tumor cells, with or without PD-1 blockade; assay type: cell-based, human
Description: For experiments investigating effects of PD-1 blockade, PBMCs were preincubated with 1 h UV-irradiated M21 tumor cells (50000 tumor cells per 1 Mill. PBMCs) for 14 days. […] Compounds and anti-PD-1 antibody (Nivolumab) or control antibody without direct effects on CD8 T cells (Ipilimumab) were added where indicated.
[…] Example 107, no antibody (no Ig), anti-PD-1 antibody (Nivolumab) or control antibody without direct effects on CD8 T cells (Ipilimumab) were included where indicated.

[3] = Ex. 107 0.03 μM, with Ipilimumab
[4] = Ex. 107 0.03 μM, with Nivolumab
[5] = Ex. 107 0.1 μM, with Ipilimumab
[6] = Ex. 107 0.3 μM, with Ipilimumab

SMILES: Cl.N[C@H]1CS(=O)(=O)c2cc(F)c(C(=O)N[C@H]3CC3(F)F)cc2N(Cc2ccc(Cl)cc2)C1=O (single isomer, unassigned) [Example 107]
- cytokine secretion or other signs of T-cell activation (non-stimulated PBMCs): did not enhance cytokine secretion or other signs of T-cell activation
- Activity Class CD4+ [1]: A (IL-2 production at 3 μM compound concentration >10 ng/mL)
- enhancement of cytokine production ([2]; CD8 T cells in the absence of tumor cells): such effect was not detected in the absence of tumor cells
- production of IL-2 and IFN-gamma ([2]; CD8 T cells restimulated with M21 tumor cells): enhanced production of both cytokines specifically upon tumor cell contact
- Average Granzyme B ([2]; Ex. 107 0.03 μM, no Ig): 1.971 ng/mL
- Average IFN-g ([2]; Ex. 107 0.03 μM, no Ig): 0.059 ng/mL
- Average IL-2 ([2]; Ex. 107 0.03 μM, no Ig): 0.048 ng/mL
- Average Number of living M21 tumor cells ([2]; Ex. 107 0.03 μM, no Ig): 16433
- Average Granzyme B [2, 3]: 1.639 ng/mL
- Average IFN-g [2, 3]: 0.057 ng/mL
- Average IL-2 [2, 3]: 0.041 ng/mL
- Average Number of living M21 tumor cells [2, 3]: 21424
- Average Granzyme B [2, 4]: 5.522 ng/mL
- Average IFN-g [2, 4]: 0.772 ng/mL
- Average IL-2 [2, 4]: 0.105 ng/mL
- Average Number of living M21 tumor cells [2, 4]: 5574
- Average Granzyme B ([2]; Ex. 107 0.1 μM, no Ig): 3.645 ng/mL
- Average IFN-g ([2]; Ex. 107 0.1 μM, no Ig): 0.313 ng/mL
- Average IL-2 ([2]; Ex. 107 0.1 μM, no Ig): 0.106 ng/mL
- Average Number of living M21 tumor cells ([2]; Ex. 107 0.1 μM, no Ig): 9029
- Average Granzyme B [2, 5]: 3.905 ng/mL
- Average IFN-g [2, 5]: 0.363 ng/mL
- Average IL-2 [2, 5]: 0.100 ng/mL
- Average Number of living M21 tumor cells [2, 5]: 10688
- Average Granzyme B ([2]; Ex. 107 0.1 μM, with Nivolumab): 9.246 ng/mL
- Average IFN-g ([2]; Ex. 107 0.1 μM, with Nivolumab): 2.282 ng/mL
- Average IL-2 ([2]; Ex. 107 0.1 μM, with Nivolumab): 0.258 ng/mL
- Average Number of living M21 tumor cells ([2]; Ex. 107 0.1 μM, with Nivolumab): 3361
- Average Granzyme B ([2]; Ex. 107 0.3 μM, no Ig): 5.469 ng/mL
- Average IFN-g ([2]; Ex. 107 0.3 μM, no Ig): 1.114 ng/mL
- Average IL-2 ([2]; Ex. 107 0.3 μM, no Ig): 0.259 ng/mL
- Average Number of living M21 tumor cells ([2]; Ex. 107 0.3 μM, no Ig): 3822
- Average Granzyme B [2, 6]: 6.001 ng/mL
- Average IFN-g [2, 6]: 1.098 ng/mL
- Average IL-2 [2, 6]: 0.222 ng/mL
- Average Number of living M21 tumor cells [2, 6]: 4339
- Average Granzyme B ([2]; Ex. 107 0.3 μM, with Nivolumab): 12.040 ng/mL
- Average IFN-g ([2]; Ex. 107 0.3 μM, with Nivolumab): 4.565 ng/mL
- Average IL-2 ([2]; Ex. 107 0.3 μM, with Nivolumab): 0.590 ng/mL
- Average Number of living M21 tumor cells ([2]; Ex. 107 0.3 μM, with Nivolumab): 1648
- Average Granzyme B ([2]; Ex. 107 1 μM, no Ig): 7.246 ng/mL
- Average IFN-g ([2]; Ex. 107 1 μM, no Ig): 1.963 ng/mL
- Average IL-2 ([2]; Ex. 107 1 μM, no Ig): 0.389 ng/mL
- Average Number of living M21 tumor cells ([2]; Ex. 107 1 μM, no Ig): 2642
- Average Granzyme B ([2]; Ex. 107 1 μM, with Ipilimumab): 7.906 ng/mL
- Average IFN-g ([2]; Ex. 107 1 μM, with Ipilimumab): 2.350 ng/mL
- Average IL-2 ([2]; Ex. 107 1 μM, with Ipilimumab): 0.478 ng/mL
- Average Number of living M21 tumor cells ([2]; Ex. 107 1 μM, with Ipilimumab): 2104
- Average Granzyme B ([2]; Ex. 107 1 μM, with Nivolumab): 12.985 ng/mL
- Average IFN-g ([2]; Ex. 107 1 μM, with Nivolumab): 5.846 ng/mL
- Average IL-2 ([2]; Ex. 107 1 μM, with Nivolumab): 0.954 ng/mL
- Average Number of living M21 tumor cells ([2]; Ex. 107 1 μM, with Nivolumab): 1574
- Average Granzyme B ([2]; Ex. 107 3 μM, no Ig): 8.208 ng/mL
- Average IFN-g ([2]; Ex. 107 3 μM, no Ig): 2.469 ng/mL
- Average IL-2 ([2]; Ex. 107 3 μM, no Ig): 0.523 ng/mL
- Average Number of living M21 tumor cells ([2]; Ex. 107 3 μM, no Ig): 2075
- Average Granzyme B ([2]; Ex. 107 3 μM, with Ipilimumab): 9.283 ng/mL
- Average IFN-g ([2]; Ex. 107 3 μM, with Ipilimumab): 2.745 ng/mL
- Average IL-2 ([2]; Ex. 107 3 μM, with Ipilimumab): 0.555 ng/mL
- Average Number of living M21 tumor cells ([2]; Ex. 107 3 μM, with Ipilimumab): 2083
- Average Granzyme B ([2]; Ex. 107 3 μM, with Nivolumab): 14.403 ng/mL
- Average IFN-g ([2]; Ex. 107 3 μM, with Nivolumab): 6.041 ng/mL
- Average IL-2 ([2]; Ex. 107 3 μM, with Nivolumab): 1.285 ng/mL
- Average Number of living M21 tumor cells ([2]; Ex. 107 3 μM, with Nivolumab): 1429
- Average Granzyme B ([2]; Ex. 107 10 μM, no Ig): 8.378 ng/mL
- Average IFN-g ([2]; Ex. 107 10 μM, no Ig): 3.113 ng/mL
- Average IL-2 ([2]; Ex. 107 10 μM, no Ig): 0.643 ng/mL
- Average Number of living M21 tumor cells ([2]; Ex. 107 10 μM, no Ig): 2000
- Average Granzyme B ([2]; Ex. 107 10 μM, with Ipilimumab): 8.227 ng/mL
- Average IFN-g ([2]; Ex. 107 10 μM, with Ipilimumab): 3.171 ng/mL
- Average IL-2 ([2]; Ex. 107 10 μM, with Ipilimumab): 0.669 ng/mL
- Average Number of living M21 tumor cells ([2]; Ex. 107 10 μM, with Ipilimumab): 2033
- Average Granzyme B ([2]; Ex. 107 10 μM, with Nivolumab): 13.079 ng/mL
- Average IFN-g ([2]; Ex. 107 10 μM, with Nivolumab): 6.729 ng/mL
- Average IL-2 ([2]; Ex. 107 10 μM, with Nivolumab): 1.596 ng/mL
- Average Number of living M21 tumor cells ([2]; Ex. 107 10 μM, with Nivolumab): 1799
- reduction of viable tumor cells ([2]; example 107 in the presence of Nivolumab): even more pronounced and reached with lower compound concentrations in the presence of Nivolumab
- enhancement of cytokine production ([2]; example 107 together with anti-PD-1 antibody (Nivolumab), CD8 T cells & M21): the enhancement of cytokine production was synergistic, i.e. more than additive
- granzyme release upon tumor-cell contact ([2]; example 107 with PD-1 blockade, CD8 T cells & M21): mediated an synergistic enhancement of the cytotoxic effector granzyme release upon tumor-cell contact
- viable tumor cells ([2]; immune cell cocultures with M21 tumor cells): strong reduction of viable tumor cells
